Entries after “also recorded” stand apart in the source; their conditions may differ. l = locked nucleic acid (LNA); d = 2'-deoxy (DNA)
Assays:
Assay type in all cases: cell-based, human
[1] = tested on: HuT102 cells; assay: Apoptosis by caspase 3/7 activity in HuT102 cells; conditions: for apoptosis (caspase 3/7 activity normalized to ATP): over time
Description: (§1) Since the level of ATP correlates directly with cell number, ATP was measured to determine the cell number. […] The reduction in cell number was accompanied by an increase in apoptosis as measured by caspase 3/7 activity (FIG. 14B). The caspase 3 and 7 proteins are members of the cysteine aspartic acid-specific protease (caspase) family. The caspase family plays key effector roles in apoptosis in mammalian cells. Caspase activity was normalized to ATP levels, as all cells have a low level of basal caspase activity that can confound the results if not normalized appropriately.
(§2) In addition to a time course, a dose titration of antimiR-155 compounds in HuT102 cells was performed with ATP and caspase 3/7 measurements performed after eight days of treatment (FIGS. 15A and 15B, respectively).

[2] = tested on: HuT102 cells; assay: AntimiR-155 combined with HDAC inhibitor SAHA: caspase 3/7 activity in HuT102 cells; conditions: 10 μM compound combined with 0.25 or 0.5 μM SAHA
Description: Vorinostat (chemical name: SAHA) is a standard-of-care epigenetic therapy for patients with advanced mycosis fungoides. However, the side-effects of pan-HDAC inhibitors are well-described. To determine whether a combination therapy might show enhanced activity compared to treatment with individual compounds, HuT102 cells were treated with a sub-efficacious dose of SAHA combined with antimiR-155.
HuT102 cells were treated with 0.25 μM SAHA and 10 μM compound 3 (SEQ ID NO: 23) or 4 (SEQ ID NO: 25), individually or in combination. Cells were harvested daily to measure ATP levels and caspase 3/7 activity. A similar experiment was performed with 0.50 μM SAHA.
FIGS. 20A and 20B show the effect on caspase 3/7 activity.

[3] = tested on: miR-155-5p; assay: Whole genome expression profiling of CTCL cell lines treated with antimiR-155
Description: To gain a more complete understanding of the molecular consequences of miR-155 inhibition in mycosis fungoides cell lines, whole genome transcriptome profiling was performed on MJ and HuT102 cell lines treated with antimiR-155 compounds 3 (SEQ ID NO: 23) or 4 (SEQ ID NO: 25) for 4 days (96 hours) or 8 days. The statistically-significant gene expression signature was defined by one-way ANOVA for antimiR-treated cells compared to untreated cells at the same time point. […] The fold-change results are shown in FIGS. 9 and 10 as heat maps, as described for FIG. 2.
The gene expression profile common to both cell lines and both compounds at Day 4 was analyzed for the enrichment of miR-155-5p seed-matched gene targets (8-, 7-, and 6-nucleotide binding sites). The fold-change of these genes is represented in a heat map in FIG. 11. […] The gene signature was also analyzed using the DAVID bioinformatic resource for functional gene annotation enrichment (Huang da et al., 2009). There was no significant enrichment of Gene Ontology database terms as defined by a Benjamini-corrected p-value of <0.01.
The gene expression signature common to both cell lines and both compounds at Day 8 (677 genes in total) was subjected to analysis for enrichment of seed-matched gene targets and for functional gene annotation.
The activity of antimiR-155 compound 4 (SEQ ID NO: 25) was further investigated by treating the third mycosis fungoides cell line, MyLa, with compound 4 (SEQ ID NO: 25) for 4 days and 8 days and profiling the changes in gene expression. To test the specificity of compound 4 (SEQ ID NO: 25), cells of the Sézary syndrome cell line (HuT78) were treated with compound 4 (SEQ ID NO: 25) for 8 days and the changes in gene expression were profiled. Genes that are statistically changed with a false discovery rate (FDR) corrected p-value of <0.05 in response to compound 4 (SEQ ID NO: 25) in three mycosis fungoides cell lines, HuT102, MJ, and My-La, are depicted in the heat map as described above. The total number of genes in the heat map is 324. […]

[4] = tested on: My-La cells; assay: Caspase 3/7 activity in My-La cells; conditions: over time
Description: (§3) FIGS. 17A and 17B show proliferation and activation of caspase 3/7 over time with compounds 3 (SEQ ID NO: 23) and 4 (SEQ ID NO: 25).
(§4) In addition to a time course, a dose titration of antimiR-155 compounds in My-La cells was performed with ATP and caspase 3/7 measurements after eight days of treatment (FIGS. 18A and 18B, respectively).

[5] = tested on: My-La cells; assay: Proliferation of My-La cells (ATP)
Description: as §3, §4

[6] = tested on: HuT102 cells; assay: Proliferation of HuT102 cells (cell number by ATP level); conditions: for proliferation (cell number by ATP): over time
Description: as §1, §2

[7] = tested on: miR-155-5p; assay: Real time PCR of miR-155 direct target genes in CTCL cell lines treated with antimiR-155 (passive uptake); conditions: for target de-repression: HuT102 and MyLa cell lines; for gene expression signature of four direct targets of miR-155-5p vs untreated cells: MJ and HuT102 cells, 72 hours; for gene expression signature of four direct targets of miR-155-5p vs untreated cells / antimiR activity by four-gene signature (Bach1, Jarid2, Picalm, Ship1): 10 μM; for antimiR activity by four-gene signature (Bach1, Jarid2, Picalm, Ship1): cumulative data across 2 μM, 50 μM and three mycosis fungoides cell lines
Description: CTCL cell lines were cultured in complete growth medium with the addition of antimiR-155 compound 1 (SEQ ID NO: 27), compound 2 (SEQ ID NO: 22), compound 3 (SEQ ID NO: 23), and compound 4 (SEQ ID NO: 25) at concentrations ranging from 2 μM to 50 μM. The antimiRs were added to the medium without any additional components to enhance cellular uptake. Cells were harvested after 72 hours of treatment and total RNA was purified. Real time PCR was performed for 13 direct gene targets of miR-155 (Worm et al. 2009; O'Connell et al. 2010; Zhang et al. 2012; and miRagen unpublished data). The relative fold-change in the expression of the 13 genes in the antimiR-treated cells compared to the untreated cells was calculated. […] Four predicted direct targets that lacked expression in at least one cell line were omitted. The gene expression fold-changes were log 10-transformed, plotted on a grayscale, representing the highest relative increase in gene expression, and conversely, the greatest reduction in gene expression.
Four direct gene targets of miR-155-5p (Bach1, Jarid2, Picalm, and Ship1) were chosen for additional analysis, as these four genes were modulated by antimiR-155 in all three mycosis fungoides cell lines (MJ, HuT102, and My-La). These genes were chosen to represent the gene expression signature for antimiR activity in vitro. Additionally, the four-gene signature was used to compare the activity of the antimiR compounds. These gene changes were reproducible over three independent experiments with cells of varying passage numbers. FIGS. 3, 4, 5, 6, and 7 show the fold-change results of this four-gene signature in the HuT102, MJ, HH, My-La, and Hut78 cell lines, respectively. * p-value<0.0001 vs untreated by nonparametric Mann-Whitney test. The Mann-Whitney test was chosen because the variances are unequal between the treatments compared to untreated cells.
The control oligonucleotide was a 14-nucleotide antimiR targeting a C. elegans miRNA not expressed in mammals (control 1). The second oligo is a scramble of the 14-nucleotide sequence of antimiR-155 compound 4 (control 2). The MJ and HuT102 cell lines were incubated with 10 μM antimiR-155 compounds 3 (SEQ ID NO: 23) or 4 (SEQ ID NO: 25) or the two control oligos for 72 hours.

[8] = tested on: miR-155; assay: Dual luciferase reporter assay with miR-155 binding site in HeLa cells; conditions: 10 nM miR-155 mimic, 2 nM oligonucleotide
Excerpt: To assess the activity of a miR-155 inhibitor, a dual luciferase reporter assay system was used. In brief, the binding site for miR-155 was cloned into the 3′ UTR of the Renilla luciferase gene located within the commercially-available psiCHECK-2 vector system (Promega). In the absence of a miR-155 inhibitor, the expression of Renilla luciferase protein is repressed by a miR-155 mimic. In the presence of a miR-155 inhibitor, the expression of Renilla luciferase protein is de-repressed. […] Expression of either Renilla or firefly luciferase is measured through detection of light emitted by the luciferase protein.
50 ng of the dual luciferase reporter plasmid containing the miR-155 binding site was transfected into HeLa cells without a miR-155 mimic (“Reporter” only), with 10 nM miR-155 mimic (“Reporter+mimic”), with 10 nM miR-155 mimic and 2 nM of the control oligonucleotide, or with 10 nM miR-155 mimic and 2 nM of a test miR-155 oligonucleotide inhibitor of 11-14 nucleotide lengths (Table 4). The miR-155 mimic was purchased from Dharmacon (miRIDIAN microRNA Human hsa-miR-155-5p mimic; Accession number MIMAT0000646; catalog # C-300647-05-0005) and contains the mature miRNA sequence: -[…]- (SEQ ID NO: 121). The control oligonucleotide used in the experiment had the following sequence: 5′-lCs.dTs.dAs.lGs.dAs.lAs.dAs.lGslAs.dGs.lTs.dAs.lGs.lA-3′ (SEQ ID NO: 122).

Substance: 5′-lCs.dAs.lCs.dGs.dAs.lTs.lTs.dAs.lGs.dCs.lAs.lTs.lTs.lA-3′ (CACGATTAGCATTA; sugars from the 5' end ldlddlldldllll, all phosphorothioate, methylation of C not given here) [compound 4]
- caspase 3/7 activity ([1]; day 8 of treatment): confirm the inhibitory potential
- apoptosis (caspase 3/7 activity normalized to ATP) [1]: greater apoptotic activity
- apoptosis (caspase 3/7 activity normalized to ATP) ([1]; listed as Compound 4): greater induction of apoptosis than bexarotene
- apoptosis (caspase 3/7 activity) [2]: increased apoptosis compared to each treatment alone
- number of genes up- or down-regulated in all three mycosis fungoides cell lines (Table 2) ([3]; HuT102, MJ, MyLa, Day 4 or Day 8): 587
- magnitude of gene regulation (whole genome heat map) ([3]; MJ and HuT102 cells, 4 days and 8 days): greater magnitude of gene regulation in both cell lines and at both time points
- change in gene expression ([3]; Sézary syndrome cell line HuT78, 8 days): did not show much change in the gene expression
- activation of caspase 3/7 [4]: greater apoptotic activity; also recorded: greater activity compared to compound 3 (SEQ ID NO: 23)
- proliferation (ATP) ([5]; dose titration, eight days of treatment): further confirm the inhibitory potential
- proliferation (ATP) ([5]; over time): greater inhibition of proliferation; also recorded: greater activity compared to compound 3 (SEQ ID NO: 23)
- proliferation (ATP) ([6]; day 8 of treatment): confirm the inhibitory potential
- proliferation (cell number by ATP) [6]: greater inhibition of proliferation; also recorded: comparable to that seen with bexarotene
- target de-repression [7]: greater target de-repression than antimiR-155 compound 3 (SEQ ID NO: 23)
- gene expression signature of four direct targets of miR-155-5p vs untreated cells [7]: statistically significantly different from that of untreated cells
- antimiR activity by four-gene signature (Bach1, Jarid2, Picalm, Ship1) [7]: more active than compounds 1 (SEQ ID NO: 27) and 3 (SEQ ID NO: 23)

Substance: 5′-lCs.dGs.lAs.lTs.lTs.dAs.lGs.dCs.lAs.lTs.lTs.lA-3′ (CGATTAGCATTA; sugars from the 5' end ldllldldllll, all phosphorothioate, methylation of C not given here) [compound 3]
- gene expression signature of four direct targets of miR-155-5p vs untreated cells [7]: statistically significantly different from that of untreated cells

Substance: 5′-lCs.dGs.lAs.lTs.lTs.lAs.lGs.dCs.lAs.lTs.lTs.lA-3′ (CGATTAGCATTA; sugars from the 5' end l1 d1 l5 d1 l4, all phosphorothioate, methylation of C not given here) [compound 2]
- apoptosis (caspase 3/7 activity normalized to ATP) [1]: greater apoptotic activity
- activation of caspase 3/7 [4]: greater apoptotic activity
- proliferation (ATP) ([5]; over time): greater inhibition of proliferation
- proliferation (cell number by ATP) [6]: greater inhibition of proliferation
- target de-repression [7]: greater target de-repression than antimiR-155 compound 3 (SEQ ID NO: 23)
- antimiR activity by four-gene signature (Bach1, Jarid2, Picalm, Ship1) [7]: more active than compounds 1 (SEQ ID NO: 27) and 3 (SEQ ID NO: 23)

Substance: 5′-lCs.dTs.dAs.lGs.dAs.lAs.dAs.lGslAs.dGs.lTs.dAs.lGs.lA-3′ (CTAGAAAGAGTAGA; sugars from the 5' end lddldldlldldll, all phosphorothioate, methylation of C not given here) [control oligonucleotide, control oligonucleotide used in the dual luciferase reporter experiment]
- de-repression of Renilla luciferase expression [8]: did not de-repress the expression of luciferase
